Data: the supplement of paper PMC10883282
± gives the standard deviation of the averaged measurements.

Key:
Assay in all cases: relative viability vs DMSO control (72 h) (fraction); higher = more viable cells
[1] = test system: SW872
Summary of the method: (§1)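 A 5 µM positive control and 0.1% DMSO vehicle ran alongside sarcoma cell lines seeded in 384-well plates to reach 80–90% confluence. Serially diluted compound, 2.5 µl from source plates of 10 mM to 0.0002 mM, was added after 24 h, and the plates were held 72 h at 37 °C, 5% CO2. Relative viability was worked out from ATPLite readings as percent growth averaged over up to triplicate wells. The values were rescaled so that 1 is full and 0 is none.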

[2] = test system: KHOS-240S
Summary of the method: as §1

[3] = test system: SK-LMS-1
Summary of the method: as §1

[4] = test system: SW1353
Summary of the method: as §1

[5] = test system: RD-ES
Summary of the method: as §1

[6] = test system: HT1080
Summary of the method: as §1

[7] = test system: RD
Summary of the method: as §1

[8] = test system: SYO-1
Summary of the method: as §1

[9] = test system: G401
Summary of the method: as §1

[10] = test system: HS729
Summary of the method: as §1

[11] = test system: SW684
Summary of the method: as §1

[12] = test system: KHOS-NP
Summary of the method: as §1

CC(C)NC[C@@H](C(=O)N1CCN(c2ncnc3c2[C@H](C)C[C@H]3O)CC1)c1ccc(Cl)cc1 [Ipatasertib]
Details	relative viability
[1], 0.00017 µM	1.01 ± 0.03
[1], 0.00051 µM	1.04 ± 0.023
[1], 0.00152 µM	1.01 ± 0.039
[1], 0.00457 µM	1.01 ± 0.033
[1], 0.01372 µM	0.922 ± 0.025
[1], 0.04115 µM	0.91 ± 0.07
[1], 0.1235 µM	0.843 ± 0.052
[1], 0.3704 µM	0.712 ± 0.031
[1], 1.111 µM	0.611 ± 0.025
[1], 3.333 µM	0.491 ± 0.022
[1], 10 µM	0.415 ± 0.0079
[2], 0.00017 µM	1.06 ± 0.068
[2], 0.00051 µM	1.04 ± 0.021
[2], 0.00152 µM	1.05 ± 0.04
[2], 0.00457 µM	1.05 ± 0.039
[2], 0.01372 µM	1.06 ± 0.081
[2], 0.04115 µM	0.991 ± 0.046
[2], 0.1235 µM	1.01 ± 0.045
[2], 0.3704 µM	0.938 ± 0.036
[2], 1.111 µM	0.87 ± 0.059
[2], 3.333 µM	0.823 ± 0.019
[2], 10 µM	0.703 ± 0.038
[3], 0.00017 µM	0.971 ± 0.031
[3], 0.00051 µM	0.95 ± 0.02
[3], 0.00152 µM	0.96 ± 0.031
[3], 0.00457 µM	1 ± 0.038
[3], 0.01372 µM	0.954 ± 0.022
[3], 0.04115 µM	0.959 ± 0.039
[3], 0.1235 µM	0.909 ± 0.039
[3], 0.3704 µM	0.8304 ± 0.005
[3], 1.111 µM	0.651 ± 0.02
[3], 3.333 µM	0.594 ± 0.025
[3], 10 µM	0.55 ± 0.048
[4], 0.00017 µM	1.04 ± 0.055
[4], 0.00051 µM	1.05 ± 0.046
[4], 0.00152 µM	1.03 ± 0.058
[4], 0.00457 µM	1.02 ± 0.086
[4], 0.01372 µM	0.991 ± 0.027
[4], 0.04115 µM	0.93 ± 0.049
[4], 0.1235 µM	0.935 ± 0.038
[4], 0.3704 µM	0.862 ± 0.021
[4], 1.111 µM	0.864 ± 0.019
[4], 3.333 µM	0.781 ± 0.029
[4], 10 µM	0.727 ± 0.021
[5], 0.00017 µM	0.9447 ± 0.0037
[5], 0.00051 µM	0.932 ± 0.036
[5], 0.00152 µM	0.954 ± 0.035
[5], 0.00457 µM	0.9221 ± 0.0058
[5], 0.01372 µM	0.925 ± 0.033
[5], 0.04115 µM	0.869 ± 0.03
[5], 0.1235 µM	0.844 ± 0.017
[5], 0.3704 µM	0.7432 ± 0.0065
[5], 1.111 µM	0.601 ± 0.014
[5], 3.333 µM	0.52 ± 0.013
[5], 10 µM	0.4354 ± 0.0005
[6], 0.00017 µM	1.1 ± 0.035
[6], 0.00051 µM	1.08 ± 0.031
[6], 0.00152 µM	1.1 ± 0.023
[6], 0.00457 µM	1.05 ± 0.018
[6], 0.01372 µM	1.07 ± 0.03
[6], 0.04115 µM	1.04 ± 0.03
[6], 0.1235 µM	1.1 ± 0.068
[6], 0.3704 µM	1.07 ± 0.026
[6], 1.111 µM	1.055 ± 0.0067
[6], 3.333 µM	0.997 ± 0.053
[6], 10 µM	0.994 ± 0.062
[7], 0.00017 µM	1.03 ± 0.033
[7], 0.00051 µM	1.06 ± 0.048
[7], 0.00152 µM	1.06 ± 0.016
[7], 0.00457 µM	1.05 ± 0.028
[7], 0.01372 µM	1.07 ± 0.02
[7], 0.04115 µM	1.05 ± 0.03
[7], 0.1235 µM	0.991 ± 0.043
[7], 0.3704 µM	0.916 ± 0.016
[7], 1.111 µM	0.799 ± 0.026
[7], 3.333 µM	0.681 ± 0.038
[7], 10 µM	0.623 ± 0.0064
[8], 0.00017 µM	0.95 ± 0.019
[8], 0.00051 µM	0.94 ± 0.012
[8], 0.00152 µM	0.862 ± 0.052
[8], 0.00457 µM	0.821 ± 0.058
[8], 0.01372 µM	0.807 ± 0.049
[8], 0.04115 µM	0.776 ± 0.043
[8], 0.1235 µM	0.719 ± 0.011
[8], 0.3704 µM	0.656 ± 0.014
[8], 1.111 µM	0.636 ± 0.029
[8], 3.333 µM	0.549 ± 0.016
[8], 10 µM	0.504 ± 0.0094
[9], 0.00017 µM	1.03 ± 0.05
[9], 0.00051 µM	1.04 ± 0.02
[9], 0.00152 µM	1.01 ± 0.01
[9], 0.00457 µM	0.956 ± 0.032
[9], 0.01372 µM	0.942 ± 0.042
[9], 0.04115 µM	0.89 ± 0.023
[9], 0.1235 µM	0.863 ± 0.042
[9], 0.3704 µM	0.786 ± 0.017
[9], 1.111 µM	0.707 ± 0.015
[9], 3.333 µM	0.655 ± 0.021
[9], 10 µM	0.613 ± 0.029
[10], 0.00017 µM	1 ± 0.095
[10], 0.00051 µM	0.969 ± 0.082
[10], 0.00152 µM	0.91 ± 0.092
[10], 0.00457 µM	0.916 ± 0.043
[10], 0.01372 µM	0.844 ± 0.08
[10], 0.04115 µM	0.849 ± 0.081
[10], 0.1235 µM	0.802 ± 0.037
[10], 0.3704 µM	0.726 ± 0.046
[10], 1.111 µM	0.643 ± 0.044
[10], 3.333 µM	0.532 ± 0.035
[10], 10 µM	0.49 ± 0.012
[11], 0.00017 µM	1.07 ± 0.064
[11], 0.00051 µM	1.11 ± 0.038
[11], 0.00152 µM	1.11 ± 0.033
[11], 0.00457 µM	1.09 ± 0.04
[11], 0.01372 µM	1.09 ± 0.032
[11], 0.04115 µM	1.08 ± 0.031
[11], 0.1235 µM	0.994 ± 0.026
[11], 0.3704 µM	0.855 ± 0.035
[11], 1.111 µM	0.664 ± 0.052
[11], 3.333 µM	0.5598 ± 0.0049
[11], 10 µM	0.49 ± 0.029
[12], 0.00017 µM	1.1 ± 0.021
[12], 0.00051 µM	1.11 ± 0.042
[12], 0.00152 µM	1.11 ± 0.022
[12], 0.00457 µM	1.09 ± 0.03
[12], 0.01372 µM	1.06 ± 0.017
[12], 0.04115 µM	1.06 ± 0.028
[12], 0.1235 µM	1.067 ± 0.0021
[12], 0.3704 µM	1.04 ± 0.013
[12], 1.111 µM	1.04 ± 0.018
[12], 3.333 µM	0.994 ± 0.042
[12], 10 µM	0.957 ± 0.05
